Data reported in patent US20060183714A1, “3-Alpha-glycosyl alpha, alpha-trehalose compound, process for producing the same, and use” (priority 2003, published 2006).

Columns and labels:
[1] = reducibility of the saccharide product; format: physicochemical; conditions: product as obtained
[2] = aminocarbonyl (Maillard) reaction of the saccharide product; format: physicochemical; conditions: product as obtained

OC[C@H]1O[C@H](OC[C@H]2O[C@H](O[C@@H]3[C@@H](O)[C@@H](O[C@H]4O[C@H](CO)[C@@H](O)[C@H](O)[C@H]4O)O[C@H](CO)[C@H]3O)[C@H](O)[C@@H](O)[C@@H]2O)[C@H](O)[C@@H](O)[C@@H]1O [Example 3, 3-α-isomaltosyl α,α-trehalose]
reducibility [1]: substantially no reducibility
aminocarbonyl reaction [2]: hardly causes amino carbonyl reaction

OC[C@H]1O[C@H](O[C@H]2O[C@H](CO)[C@@H](O)[C@H](O[C@H]3O[C@H](CO)[C@@H](O)[C@H](O)[C@H]3O)[C@H]2O)[C@H](O)[C@@H](O)[C@@H]1O [Example 5, 3-α-glucosyl α,α-trehalose]
reducibility [1]: substantially no reducibility
aminocarbonyl reaction [2]: hardly causes aminocarbonyl reaction
